Source: patent publication US20240197666A1, “DITERPENOID COMPOUNDS THAT ACT ON PROTEIN KINASE C (PKC)” (K-Gen Therapeutics, Inc., priority 2021, published 2024)

Tests used:
[1] = test system: phosphorylation of PKCμ, PKCδ and Erk1/2 in A549 lung cancer cells; test: Western blot of activation of PKC and downstream target protein in A549 cells; type: cell-based; conditions: 0.3 μM, 30 minutes
Method in brief: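 A549 cells grown overnight were treated 30 min with compound at two concentrations. Lysates were analysed by Western blot or Wes with phospho-specific antibodies to PKCμ, PKCδ (including S299) and Erk1/2, using β-actin or vinculin loading controls. Prostratin at 1 μM served as reference.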

[2] = Pharmacokinetic study, intravenous bolus injection in rats; type: in vivo, rat; conditions: for AUClast / C0 / CL / MRTInf / Vss / Vz / t1/2: rat plasma, bolus injection
Description: Plasma samples were taken at 1 minute, 5 minutes, 15 minutes, 30 minutes, 1 hour, 2 hours, 4 hours, 7 hours, and 24 hours. The drug concentrations at each time point were determined by LC-MS. The results of drug concentrations and pharmacokinetic parameters are presented in the Table 6 and Table 7, respectively, below.

CT26 tumors = test: CT26 syngeneic model, IT injection, efficacy and re-challenge; type: in vivo, mouse
Description: Each 6-8 weeks old female Balb/c mouse was implanted subcutaneously with 3×10^5 CT26 mouse colon cancer cells. 20 animals were randomized when the average tumor volume reached 60 mm3. Tumor size was measured as described in Example 76. Animal body weight was monitored regularly as an indirect measure of toxicity. All mice tolerated drug treatments very well with less than 10% body weight loss. […] Scabs formed a few days later and the skin recovered with minimal scaring within 3-4 weeks.
For the efficacy portion of the study, the major endpoints were tumor growth inhibition and the animal survival.
To test if anti-tumor immunity was developed in the cured mice, the re-challenge portion of the study was conducted. The major endpoint was the tumor initiation (measurable tumor >50 mm^3) of the re-implanted tumor cells.
CT26 cells (3×10^5) were re-implanted into the right lower flank of the cured animals and 10 age-matched naïve control animals from the same batch to challenge animal immune system. An unrelated 4T1 breast cancer cell line (1×10^5) was implanted in the left upper flank of these animals at the same time. Tumor initiation and tumor growth were monitored. Data points represent group means of the tumor volumes and error bars represent standard error of the mean (SEM).

C1b domain of human PKCθ = target: T1, C1b domain of human PKCθ (Homo sapiens, UniProt Q04759); test: biochemical; type: binding; conditions: 3H-PDBu competition
T1 construct: Genes encoding C1b domains of human PKCα, δ, ε, θ, and PKD1 (PKCμ) were synthesized; made in house; host or cells: E. coli BL21(DE3)
T1 sequence (Q04759 231-281 limits assumed): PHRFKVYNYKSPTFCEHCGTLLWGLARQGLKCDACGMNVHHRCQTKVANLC
Method in brief: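 Ki derived by Cheng-Prusoff from IC50, with each protein batch's measured ^3H-PDBu Kd. Displacement of ^3H-PDBu from E. coli-produced GST-fused C1b domains or full-length human PKC was run 10 min at 37°C plus 20 min on ice, with filter capture and scintillation counting.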

[3] = challenge of 6 cured mice with 4T1 cells
[4] = re-challenge of 6 cured mice with CT26 cells, 32 days

CC1=C[C@H]2[C@@]3(O)[C@H](C)C[C@]4(OC(=O)[C@@H](N)CC5CCCCC5)[C@H]([C@@H]3C=C(CO)C[C@]2(O)C1=O)C4(C)C
phosphorylation of PKCμ, PKCδ and Erk1/2 [1]: induced high levels of phosphorylation
Concentration in Rat Plasma after Bolus Injection, Mean ([2]; Dose 0.1 mg/kg iv, 0.0167 hour post dose): 216.0 ng/mL
Concentration in Rat Plasma after Bolus Injection, Mean ([2]; Dose 0.1 mg/kg iv, 0.0833 hour post dose): 49.2 ng/mL
Concentration in Rat Plasma after Bolus Injection, Mean ([2]; Dose 0.1 mg/kg iv, 0.25 hour post dose): 28.7 ng/mL
Concentration in Rat Plasma after Bolus Injection, Mean ([2]; Dose 0.1 mg/kg iv, 0.5 hour post dose): 19.4 ng/mL
Concentration in Rat Plasma after Bolus Injection, Mean ([2]; Dose 0.1 mg/kg iv, 1 hour post dose): 14.6 ng/mL
Concentration in Rat Plasma after Bolus Injection, Mean ([2]; Dose 0.1 mg/kg iv, 2 hour post dose): 5.0 ng/mL
Concentration in Rat Plasma after Bolus Injection, Mean ([2]; Dose 0.1 mg/kg iv, 4 hour post dose): 1.0 ng/mL
Concentration in Rat Plasma after Bolus Injection, Mean ([2]; Dose 0.1 mg/kg iv, 7 hour post dose): <1 ng/mL
Concentration in Rat Plasma after Bolus Injection, Mean ([2]; Dose 0.1 mg/kg iv, 24 hour post dose): <1 ng/mL
Concentration in Rat Plasma after Bolus Injection, Mean ([2]; Dose 0.2 mg/kg iv, 0.0167 hour post dose): 334.0 ng/mL
Concentration in Rat Plasma after Bolus Injection, Mean ([2]; Dose 0.2 mg/kg iv, 0.0833 hour post dose): 102.0 ng/mL
Concentration in Rat Plasma after Bolus Injection, Mean ([2]; Dose 0.2 mg/kg iv, 0.25 hour post dose): 65.0 ng/mL
Concentration in Rat Plasma after Bolus Injection, Mean ([2]; Dose 0.2 mg/kg iv, 0.5 hour post dose): 43.6 ng/mL
Concentration in Rat Plasma after Bolus Injection, Mean ([2]; Dose 0.2 mg/kg iv, 1 hour post dose): 37.6 ng/mL
Concentration in Rat Plasma after Bolus Injection, Mean ([2]; Dose 0.2 mg/kg iv, 2 hour post dose): 29.1 ng/mL
Concentration in Rat Plasma after Bolus Injection, Mean ([2]; Dose 0.2 mg/kg iv, 4 hour post dose): 6.0 ng/mL
Concentration in Rat Plasma after Bolus Injection, Mean ([2]; Dose 0.2 mg/kg iv, 7 hour post dose): <1 ng/mL
Concentration in Rat Plasma after Bolus Injection, Mean ([2]; Dose 0.2 mg/kg iv, 24 hour post dose): <1 ng/mL
AUClast ([2]; 0.1 mg/kg): 48.3 ng·h/mL
C0 ([2]; 0.1 mg/kg): 314 ng/mL
CL ([2]; 0.1 mg/kg): 32.9 mL/min/kg
MRTInf ([2]; 0.1 mg/kg): 0.873 h
Vss ([2]; 0.1 mg/kg): 1.73 L/kg
Vz ([2]; 0.1 mg/kg): 2.44 L/kg
t1/2 ([2]; 0.1 mg/kg): 0.857 h
AUClast ([2]; 0.2 mg/kg): 119 ng·h/mL
C0 ([2]; 0.2 mg/kg): 450 ng/mL
CL ([2]; 0.2 mg/kg): 21.5 mL/min/kg
MRTInf ([2]; 0.2 mg/kg): 2.93 h
Vss ([2]; 0.2 mg/kg): 2.77 L/kg
Vz ([2]; 0.2 mg/kg): 3.25 L/kg
t1/2 ([2]; 0.2 mg/kg): 2.29 h

CC1=C[C@H]2[C@@]3(O)[C@H](C)C[C@]4(OC(=O)[C@@H](N)C5Cc6ccccc6C5)[C@H]([C@@H]3C=C(CO)C[C@]2(O)C1=O)C4(C)C
phosphorylation of PKCμ, PKCδ and Erk1/2 [1]: induced high levels of phosphorylation

CC1=C[C@H]2[C@@]3(O)[C@H](C)C[C@]4(OC(=O)[C@H](N)CCCCCCc5ccccc5)[C@H]([C@@H]3C=C(CO)C[C@]2(O)C1=O)C4(C)C
body weight loss (CT26 tumors; 20 mg/ml, 20 μl (400 μg) IT, Balb/c mice): less than 10%
mice alive at day 50 with tumors completely eradicated (CT26 tumors; N 10): 6
median survival (CT26 tumors; analysis to day 50): not reached
Tumor initiation (mice) (CT26 tumors; [3]): 6
Tumor-free (mice) (CT26 tumors; [3]): 0
mice with tumors eliminated (CT26 tumors; day 3 after the first IT dose, N 10): 8
mean tumor volume (CT26 tumors; day 12, 20 mg/ml, 20 μl IT): 35 mm^3
mice with tumor relapse (CT26 tumors; from day 10, N 10): 4
Tumor initiation (mice) (CT26 tumors; [4]): 0
Tumor-free (mice) (CT26 tumors; [4]): 6
Ki (C1b domain of human PKCθ): 10 to 30 nM
